The text below walks through data of ChEMBL document CHEMBL4020821, “Targeting Acidic Mammalian chitinase Is Effective in Animal Model of Asthma” (J Med Chem, 2018).

The term IC50 denotes the concentration needed to halve the response being measured. As a reminder, the clearance is the volume of plasma or blood freed of the substance per unit of time. Usually Tmax stands for the time from dosing to the highest level. Usually AUC(0-inf) stands for total exposure, with the tail of the curve extrapolated. One may read the Cmax as the maximum level reached in the sampled fluid or tissue. The term bioavailability denotes dose-corrected exposure relative to a reference, in per cent. A higher bioavailability goes with much systemic uptake. What is called half-life is the time needed for the level to fall by half in the phase considered. Low values mean fast loss, high ones slow loss. The term Ki denotes the equilibrium dissociation constant of an inhibitor or competing ligand from its target.

The target of data set [1] is T1, Acidic mammalian chitinase (Mus musculus, UniProt Q91XA9). The experiment in a line: Inhibition of mouse recombinant full length C-terminal His-tagged acidic mammalian chitinase expressed in CHO-K1 cells using 4-methylumbelliferyl-beta-D-N,N'-diacetylchitobioside hydrate as substrate after 60 mins by fluorescence assay.
Data set [2] deals with T2, Chitotriosidase-1 (Mus musculus, UniProt Q9D7Q1). The experiment in a line: Inhibition of mouse recombinant full length C-terminal His-tagged chitotriosidase expressed in CHO-K1 cells using 4-methylumbelliferyl-beta-D-N,N',N\"\"-triacetylchitotrioside as substrate after 60 mins by fluorescence assay. Format: cell-based.
In data set [3] the target is T3, Chitotriosidase-1 (Homo sapiens, UniProt Q13231). Briefly: Inhibition of human recombinant full length C-terminal His-tagged chitotriosidase expressed in CHO-K1 cells using 4-methylumbelliferyl-beta-D-N,N',N\"\"-triacetylchitotrioside as substrate after 60 mins by fluorescence assay. Format: cell-based.
A short description of data set [4]: Clearance in BALB/c mouse at 3 mg/kg, iv by LC-MS/MS analysis. The note with it: in vivo. Format: ADME, organism-based.
Data set [5] is described as follows: Volume of distribution at steady state in BALB/c mouse at 3 mg/kg, iv by LC-MS/MS analysis. Format: ADME, organism-based. The note with it: in vivo, read-out: Vdss.
A short description of data set [6]: Tmax in BALB/c mouse at 10 mg/kg, po by LC-MS/MS analysis. Format: ADME, organism-based. The following applies: in vivo.
The nature of data set [7]: AUC (0 to infinity) in BALB/c mouse at 10 mg/kg, po by LC-MS/MS analysis. Format: ADME, organism-based. More on the design: dose 10 mg/kg, route oral, time infinity. The note with it: in vivo.
Data set [8] is described as follows: AUC (0 to infinity) in BALB/c mouse at 3 mg/kg, iv by LC-MS/MS analysis. Format: ADME, organism-based. Also on record: dose 3 mg/kg, route intravenous, time infinity. The following applies: in vivo.
A short description of data set [9]: Cmax in BALB/c mouse at 10 mg/kg, po by LC-MS/MS analysis. Format: ADME, organism-based. Also on record: dose 10 mg/kg, route oral. The note with it: in vivo.
The nature of data set [10]: Oral bioavailability in BALB/c mouse at 10 mg/kg by LC-MS/MS analysis. Format: ADME, organism-based. The following applies: in vivo.
Data set [11] can be described thus: Stability in liver microsomes (unknown origin) assessed as compound remaining after 20 mins. Format: ADME, microsome. The note with it: read-out: Stability. On the technique in general: Liver microsomes are vesicles of endoplasmic reticulum, rich in cytochrome P450 enzymes.
A short description of data set [12]: Half life in BALB/c mouse at 3 mg/kg, iv by LC-MS/MS analysis. The note with it: in vivo. Format: ADME, organism-based.
Data set [13] concerns the target T2, Chitotriosidase-1. Briefly: Inhibition of mouse recombinant full length C-terminal His-tagged chitotriosidase expressed in CHO-K1 cells using 4-methylumbelliferyl-beta-D-N,N',N\"\"-triacetylchitotrioside as substrate after 60 mins by Lineweaver-Burk plot analysis. Format: cell-based.
In data set [14] the target is T3, Chitotriosidase-1. Briefly: Inhibition of human recombinant full length C-terminal His-tagged chitotriosidase expressed in CHO-K1 cells using 4-methylumbelliferyl-beta-D-N,N',N\"\"-triacetylchitotrioside as substrate after 60 mins by Lineweaver-Burk plot analysis. Format: cell-based.
A further data set concerns Salmonella typhimurium. Briefly: Genotoxicity in Salmonella typhimurium by Ames test. Format: toxicity. The note with it: salmonella enterica subsp. enterica serovar typhimurium.
Data set [15] deals with T1, Acidic mammalian chitinase. Briefly: Inhibition of mouse recombinant full length C-terminal His-tagged acidic mammalian chitinase expressed in CHO-K1 cells using 4-methylumbelliferyl-beta-D-N,N'-diacetylchitobioside hydrate as substrate after 60 mins by Lineweaver-Burk plot analysis.

T2 sequence (Q9D7Q1 whole entry): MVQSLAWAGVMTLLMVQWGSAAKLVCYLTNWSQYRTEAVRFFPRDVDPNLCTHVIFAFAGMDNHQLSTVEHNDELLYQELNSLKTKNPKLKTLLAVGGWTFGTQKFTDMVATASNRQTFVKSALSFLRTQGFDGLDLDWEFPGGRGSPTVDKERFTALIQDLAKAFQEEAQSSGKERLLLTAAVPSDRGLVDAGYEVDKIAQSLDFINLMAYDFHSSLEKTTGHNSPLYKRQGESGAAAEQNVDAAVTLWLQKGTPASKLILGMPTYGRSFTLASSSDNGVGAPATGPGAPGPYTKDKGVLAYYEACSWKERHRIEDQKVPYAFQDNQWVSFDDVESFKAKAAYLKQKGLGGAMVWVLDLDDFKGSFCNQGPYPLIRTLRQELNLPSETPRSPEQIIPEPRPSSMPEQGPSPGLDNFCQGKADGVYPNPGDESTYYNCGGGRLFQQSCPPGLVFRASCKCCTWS
T1 sequence (Q91XA9 whole entry): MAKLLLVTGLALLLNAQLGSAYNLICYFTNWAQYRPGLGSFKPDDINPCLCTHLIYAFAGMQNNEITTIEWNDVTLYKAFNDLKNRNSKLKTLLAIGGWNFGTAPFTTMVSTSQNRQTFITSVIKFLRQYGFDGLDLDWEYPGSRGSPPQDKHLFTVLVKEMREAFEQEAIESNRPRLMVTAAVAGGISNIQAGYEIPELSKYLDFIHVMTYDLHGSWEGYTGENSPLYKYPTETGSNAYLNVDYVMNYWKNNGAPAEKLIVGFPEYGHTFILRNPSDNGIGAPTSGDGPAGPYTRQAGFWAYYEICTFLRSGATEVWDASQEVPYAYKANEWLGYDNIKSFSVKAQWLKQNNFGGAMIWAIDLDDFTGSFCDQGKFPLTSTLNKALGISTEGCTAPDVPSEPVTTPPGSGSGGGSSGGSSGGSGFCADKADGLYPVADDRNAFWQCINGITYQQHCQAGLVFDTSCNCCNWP
T3 sequence (Q13231 whole entry): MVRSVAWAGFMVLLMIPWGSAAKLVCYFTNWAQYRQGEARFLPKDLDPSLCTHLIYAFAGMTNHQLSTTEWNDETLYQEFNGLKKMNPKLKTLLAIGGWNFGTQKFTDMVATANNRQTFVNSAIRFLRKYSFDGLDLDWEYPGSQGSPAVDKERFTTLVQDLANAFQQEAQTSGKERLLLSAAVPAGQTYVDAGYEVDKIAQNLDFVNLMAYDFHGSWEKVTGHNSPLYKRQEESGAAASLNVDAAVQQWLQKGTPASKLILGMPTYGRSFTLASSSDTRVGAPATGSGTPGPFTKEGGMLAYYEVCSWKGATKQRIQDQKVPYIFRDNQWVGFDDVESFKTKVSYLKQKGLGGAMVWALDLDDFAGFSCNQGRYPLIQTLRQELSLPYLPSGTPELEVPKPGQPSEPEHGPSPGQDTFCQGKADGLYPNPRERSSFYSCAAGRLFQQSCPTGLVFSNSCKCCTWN

As for `Nc1n[nH]c(N2CCN(CCOc3ccc(Br)cc3)CC2)n1`, the values for the IC50 (in data set [1]; on Chitotriosidase-1 [2]; on Chitotriosidase-1 [3]) were 2.1 µM, 19.8 µM and 6.76 µM, respectively.

On to `Nc1n[nH]c(N2CCC(NC(=O)Nc3ccc(Br)cc3)CC2)n1`, for which the concentration for half-maximal inhibition (IC50) at Chitotriosidase-1 [2] and on Chitotriosidase-1 [3] was greater than 100 µM in each case.

Consider `Nc1n[nH]c(N2CCC(N(CCc3ccc(Cl)cc3)Cc3ccccc3)CC2)n1`, for which the results for the IC50 (in data set [1]; at Chitotriosidase-1 [2]; at Chitotriosidase-1 [3]) were 0.0112 µM, 1.51 µM and 0.163 µM, respectively.

On to `CCN(CCc1ccc(Br)cc1)C1CCN(c2nc(N)n[nH]2)CC1`, for which the IC50 at Chitotriosidase-1 [2] turned out to be 2.72 µM; at Chitotriosidase-1 [3], 0.105 µM.

As to `CN(CCc1ccc(C2CC2)cc1)C1CCN(c2nc(N)n[nH]2)CC1`, the IC50 on Chitotriosidase-1 [2] stood at 3.07 µM; on Chitotriosidase-1 [3], 0.765 µM.

Regarding `Nc1n[nH]c(N2CCC(CNC(=O)c3ccc(Br)cc3)CC2)n1`, the IC50 on Chitotriosidase-1 [2] was greater than 100 µM; at Chitotriosidase-1 [3], 23.1 µM.

In the case of `Nc1n[nH]c(N2CCN(C(=O)COc3ccc(Br)cc3)CC2)n1`, the half-maximal inhibitory concentration (IC50) at Chitotriosidase-1 [2] and on Chitotriosidase-1 [3] was greater than 100 µM throughout.

On to `Nc1n[nH]c(N2CCC(C(=O)NCc3ccc(Br)cc3)CC2)n1`, for which the IC50 at Chitotriosidase-1 [2] and on Chitotriosidase-1 [3] was greater than 100 µM in each case.

On to `CN(C1CCN(c2nc(N)n[nH]2)CC1)S(=O)(=O)Cc1ccc(Br)cc1`, for which the IC50 on Chitotriosidase-1 [2] and at Chitotriosidase-1 [3] was greater than 100 µM in each case.

On to `Nc1n[nH]c(N2CCC(NC(=O)Cc3ccc(Br)cc3)CC2)n1`, for which the IC50 at Chitotriosidase-1 [2] and at Chitotriosidase-1 [3] was greater than 100 µM throughout.

For `CN(Cc1ccc(Br)cc1)CC1CCN(c2nc(N)n[nH]2)CC1`, the concentration for half-maximal inhibition (IC50) on Chitotriosidase-1 [2] and at Chitotriosidase-1 [3] was greater than 100 µM each time.

Consider `Nc1n[nH]c(N2CCC(NS(=O)(=O)Cc3ccc(Br)cc3)CC2)n1`, for which, in [4], the clearance turned out to be 11.5 mL/min/kg. For the same molecule, the half-maximal inhibitory concentration (IC50) on Chitotriosidase-1 [2] and on Chitotriosidase-1 [3] was greater than 100 µM throughout. Besides, in data set [5], the Vd is 1.16 L/kg. In addition, in [6], the time of peak concentration (Tmax) worked out at 1 h. In addition, the total exposure AUC(0-inf) in data set [7] is 8210 ng·h/mL; in data set [8], 4340 ng·h/mL. For the same molecule, the concentration in data set [9] peaked (Cmax) at 3250 ng/mL. In addition, in [10], the bioavailability was 57%. In data set [11], the remaining at 20 min came out at 100%. Moreover, the half-life in data set [12] is 11.1 h.

Regarding `Nc1n[nH]c(N2CCC(N(CCc3ccc(Cl)cc3)Cc3cccc4ccccc34)CC2)n1`, the IC50 on Chitotriosidase-1 [2] was 0.573 µM; on Chitotriosidase-1 [3] it was 0.036 µM.

For `CN(CCc1ccc(Br)cc1)C1CCN(c2nc(N)n[nH]2)CC1`, in [4], the clearance was found to be 52.6 mL/min/kg. The half-inhibitory concentration (IC50) stood at 2.7 µM at Chitotriosidase-1 [2] and 0.175 µM on Chitotriosidase-1 [3]. For the same molecule, the Vd in [5] is 12.8 L/kg. In data set [6], the time to peak (Tmax) was 2 h. Further, the AUC(0-inf) in data set [7] was 3340 ng·h/mL; in data set [8], 950 ng·h/mL. Moreover, the concentration in data set [9] peaked (Cmax) at 672 ng/mL. Moreover, the bioavailability in data set [10] was determined as 99%. Further, in data set [11], the remaining at 20 min is 97.5%. This molecule had a half-life in [12] of 4.4 h.

On to `CN(CCc1ccc(Cl)cc1)C1CCN(c2nc(N)n[nH]2)CC1`, for which the half-inhibitory concentration (IC50) on Chitotriosidase-1 [2] stood at 7.47 µM; on Chitotriosidase-1 [3] it was 0.389 µM.

On to `CN(CCc1ccc(C(C)(C)C)cc1)C1CCN(c2nc(N)n[nH]2)CC1`, for which the IC50 at Chitotriosidase-1 [2] is greater than 100 µM; on Chitotriosidase-1 [3] it was 4.16 µM.

As to `CC(C)N(CCc1ccc(Cl)cc1)C1CCN(c2nc(N)n[nH]2)CC1`, the IC50 at Chitotriosidase-1 [2] turned out to be 15.6 µM; on Chitotriosidase-1 [3] it was 0.945 µM.

In the case of `CCN(CCc1ccc(Cl)cc1)C1CCN(c2nc(N)n[nH]2)CC1`, the IC50 on Chitotriosidase-1 [2] is 7.08 µM; on Chitotriosidase-1 [3], 0.385 µM.

With `CC(C)CN(CCc1ccc(Cl)cc1)C1CCN(c2nc(N)n[nH]2)CC1`, the 50% inhibitory concentration (IC50) in data set [1] was 0.0188 µM; at Chitotriosidase-1 [2], 2.96 µM; at Chitotriosidase-1 [3] it was 0.232 µM. This molecule also displayed a clearance in [4] of 9.06 mL/min/kg. The Ki was 3.4 µM at Chitotriosidase-1 [13], 0.312 µM at Chitotriosidase-1 [14] and 0.0105 µM in [15]. In addition, the Vd in data set [5] was determined as 2.33 L/kg. In [6], the Tmax came to 0.25 h. The AUC(0-inf) in [7] was 9560 ng·h/mL; in data set [8] it was 5520 ng·h/mL. Also, in data set [9], the maximum concentration (Cmax) turned out to be 1860 ng/mL. For the same molecule, the bioavailability in [10] is 52%. For the same molecule, the Activity entry with Salmonella typhimurium was “Non-Toxic”. Further, in [11], the remaining at 20 min was 76.9%. The molecule further had a half-life in data set [12] of 2.97 h.

In the case of `Nc1n[nH]c(N2CCC(N(CCc3ccc(Cl)cc3)CC3CCCCC3)CC2)n1`, the results for the IC50 at Chitotriosidase-1 [2] and on Chitotriosidase-1 [3] were 2.03 µM and 0.123 µM, respectively.

For `CC(C)c1ccc(CCN(C)C2CCN(c3nc(N)n[nH]3)CC2)cc1`, the IC50 on Chitotriosidase-1 [2] is 6.96 µM; on Chitotriosidase-1 [3] it was 1.17 µM.

Regarding `CCc1ccc(CCN(C)C2CCN(c3nc(N)n[nH]3)CC2)cc1`, the IC50 at Chitotriosidase-1 [2] was 7.12 µM.

On to `CC(C)CN(CCc1ccc(Br)cc1)C1CCN(c2nc(N)n[nH]2)CC1`, for which the clearance in data set [4] came to 8.53 mL/min/kg. The half-inhibitory concentration (IC50) at Chitotriosidase-1 [2] came out at 1.27 µM; on Chitotriosidase-1 [3], 0.123 µM. Besides, in [5], the Vd came to 1.66 L/kg. For the same molecule, the time of peak concentration (Tmax) in data set [6] amounted to 0.5 h. For the same molecule, the area under the curve AUC(0-inf) in data set [7] is 27900 ng·h/mL; in data set [8], 5860 ng·h/mL. Also, the peak level in data set [9] (Cmax) was 6040 ng/mL. In data set [10], this molecule showed a bioavailability of 100%. Further, the remaining at 20 min in [11] worked out at 78.3%. This molecule also had a half-life in [12] of 3.25 h.

`Cc1ccc(CCN(C)C2CCN(c3nc(N)n[nH]3)CC2)cc1`: the concentration for half-maximal inhibition (IC50) was found to be 12.6 µM at Chitotriosidase-1 [2] and 1.53 µM on Chitotriosidase-1 [3].

`CN(CCc1ccccc1)C1CCN(c2nc(N)n[nH]2)CC1`: the IC50 at Chitotriosidase-1 [2] and at Chitotriosidase-1 [3] was greater than 100 µM throughout.

For the molecule `Nc1n[nH]c(N2CCC(N(CCc3ccc(Cl)cc3)Cc3ccccc3Cl)CC2)n1`, the results for the half-inhibitory concentration (IC50) (in [1]; on Chitotriosidase-1 [2]; on Chitotriosidase-1 [3]) were 0.0097 µM, 2.58 µM and 0.149 µM, respectively. The molecule also yielded a clearance in data set [4] of 45 mL/min/kg. Also, in data set [5], the Vd is 3.03 L/kg. In addition, in data set [6], the Tmax turned out to be 1 h. The AUC(0-inf) in data set [7] amounted to 1750 ng·h/mL; in data set [8], 1110 ng·h/mL. In [9], this molecule had a maximum concentration (Cmax) of 618 ng/mL. The bioavailability in data set [10] was found to be 47%. The remaining at 20 min in data set [11] is 21%. Also, in data set [12], the half-life was 6.78 h.

For the molecule `CN(CCc1ccc(Cl)cc1Cl)C1CCN(c2nc(N)n[nH]2)CC1`, the concentration for half-maximal inhibition (IC50) at Chitotriosidase-1 [2] was 47.6 µM; on Chitotriosidase-1 [3] it was 2.26 µM.
